Data on 15 molecules can be found in PMC3947174 (Structure (London, England : 1993), 2013).

Ends that are not written are not given here. Ahx = NCCCCCC(=O)O

Assay [1] addresses T1, CALP (CAL PDZ domain) (Homo sapiens, UniProt Q9HD26). Put plainly: FP competition. Type of assay: binding. The note with it: reporter F*-iCAL36, PDZ ~[…] Kd, triplicate experiments.
For another assay, the target named is T2, N1P1 (NHERF1 PDZ1) (Homo sapiens, UniProt O14745).
T2 sequence (O14745 14-94 limits assumed): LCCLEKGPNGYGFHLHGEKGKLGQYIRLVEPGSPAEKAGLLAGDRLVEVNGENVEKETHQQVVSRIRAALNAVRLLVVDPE
Put plainly: FP displacement binding to NHERF1 PDZ1.

The next assay concerns the target T3, N1P2 (NHERF1 PDZ2) (Homo sapiens, UniProt O14745).
T3 sequence (O14745 154-234 limits assumed): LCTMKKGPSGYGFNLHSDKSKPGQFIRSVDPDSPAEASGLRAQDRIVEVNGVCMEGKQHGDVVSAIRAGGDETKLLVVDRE
Put plainly: FP displacement binding to NHERF1 PDZ2.

The next assay addresses N2P1 (NHERF2 PDZ1) (Homo sapiens, UniProt Q15599). In words: FP displacement binding to NHERF2 PDZ1.
For the next assay, the target named is N2P2 (NHERF2 PDZ2) (Homo sapiens, UniProt Q15599). Put plainly: FP displacement binding to NHERF2 PDZ2.
Another assay has as its target iCAL36. In words: fluorescence polarization competition. The following applies: cited from earlier work. A general note: In fluorescence polarisation assays a small probe gives low polarisation when free and higher when bound to something large.
Another assay deals with CFTR (Homo sapiens). Put plainly: fluorescence polarization competition. The note with it: cited from earlier work.
In the next assay the target is iCAL36L. In words: fluorescence polarization competition. The following applies: cited from earlier work.
Assay [2] deals with T1, CALP (CAL PDZ domain). The following applies: K*-designed hexamer; ref Roberts et al., 2012; cited from earlier work.
The target in a further assay is T4, iCAL36TRL.
T4 chain: ANSRWPTTRL
In words: fluorescence polarization competition.

The next assay addresses T5, iCAL36Q-4.
T5 chain: ANSRWQTSII
Put plainly: fluorescence polarization competition.

The target in the next assay is T6, iCAL36VQD-3.
T6 chain: ANSRVQDSII
In words: fluorescence polarization competition.

In the next assay the target is T7, iCAL36QDTRL.
T7 chain: ANSRWQDTRL
Put plainly: fluorescence polarization competition.

A further assay has as its target T8, F*-CFTR6 (Homo sapiens).
T8 chain: {Fluorescein-Ahx}-VQDTRL
In words: fluorescence polarization.

For orientation: Ki means the equilibrium dissociation constant of an inhibitor or competing ligand from its target. As for `CC(C)C[C@H](NC(=O)[C@H](CCCNC(=N)N)NC(=O)[C@@H](NC(=O)[C@@H](NC(=O)[C@H](CCC(N)=O)NC(=O)[C@@H](NC(=O)[C@H](CCC(=O)O)NC(=O)[C@H](CCC(=O)O)NC(=O)[C@H](CCC(=O)O)NC(=O)[C@@H](N)[C@@H](C)O)C(C)C)[C@@H](C)O)[C@@H](C)O)C(=O)O` [CFTRT^-3], the Ki on CALP (CAL PDZ domain) [1] was determined as 18 ± 5.5 µM; at N1P1 (NHERF1 PDZ1) it was 0.76 ± 0.51 µM; at N1P2 (NHERF1 PDZ2) it was 4.6 ± 1.6 µM; at N2P1 (NHERF2 PDZ1), 1.3 ± 0.4 µM; on N2P2 (NHERF2 PDZ2) it was 0.45 ± 0.25 µM.
Consider `CC[C@H](C)[C@H](NC(=O)[C@@H](NC(=O)[C@H](CO)NC(=O)[C@@H](NC(=O)[C@H](CCC(N)=O)NC(=O)[C@H](Cc1c[nH]c2ccccc12)NC(=O)[C@H](CCCNC(=N)N)NC(=O)[C@H](CO)NC(=O)[C@H](CC(N)=O)NC(=O)[C@H](C)N)[C@@H](C)O)[C@@H](C)CC)C(=O)O` [iCAL36Q^-4], for which the Ki at N1P1 (NHERF1 PDZ1) is 280 ± 100 µM; on N1P2 (NHERF1 PDZ2), over 1000 µM; on N2P1 (NHERF2 PDZ1), 300 ± 100 µM.
In the case of ANSRVQDSII [iCAL36VQD^-3], the Ki on CALP (CAL PDZ domain) [1], on N1P1 (NHERF1 PDZ1), on N1P2 (NHERF1 PDZ2) and at N2P1 (NHERF2 PDZ1) was over 1000 µM throughout.
As to ANSRVQDTRL [iCAL36VQDTRL], the Ki is 2.5 ± 0.3 µM at N1P1 (NHERF1 PDZ1), 6.5 ± 2.3 µM on N1P2 (NHERF1 PDZ2), 3.8 ± 1.4 µM on N2P1 (NHERF2 PDZ1) and 0.94 ± 0.42 µM on N2P2 (NHERF2 PDZ2).
For the molecule ANSRWPTTRL [iCAL36TRL], the Ki amounted to 8 ± 1.4 µM at N1P1 (NHERF1 PDZ1), 8.7 ± 3.1 µM at N2P1 (NHERF2 PDZ1) and 16.5 ± 3.9 µM on N2P2 (NHERF2 PDZ2).
ANSRWQDTRL [iCAL36QDTRL]: the Ki at N1P1 (NHERF1 PDZ1) is 1.5 ± 0.2 µM; at N1P2 (NHERF1 PDZ2), 6.7 ± 2.4 µM; on N2P1 (NHERF2 PDZ1) it was 3.1 ± 1.4 µM; on N2P2 (NHERF2 PDZ2), 1.1 ± 0.6 µM.
Consider N1P1 PDZ1 (from UniProt O14745), for which the inhibition constant Ki in the assay with iCAL36 was over 1000 µM.
For the molecule N1P2 PDZ2 (from UniProt O14745), the results for the Ki with CFTR (Homo sapiens), with iCAL36L and with iCAL36 were 1.8 µM, over 1000 µM and over 1000 µM, respectively.
As for N2P1 PDZ1 (from UniProt Q15599), the Ki in the assay with iCAL36 was over 1000 µM.
On to N2P2 PDZ2 (from UniProt Q15599), for which the Ki with iCAL36 was over 1000 µM.
For the molecule WQVTRV [kCAL01], at CALP (CAL PDZ domain) [2], the “CALP affinity in words” value was “highest affinity observed to date for a hexameric sequence”.

B1: N1P2 PDZ2 (protein)
chain: RPRLCTMKKGPSGYGFNLHSDKSKPGQFIRSVDPDSPAEASGLRAQDRIVEVNGVCMEGKQHGDVVSAIRAGGDETKLLVVDRETDE
For B1, the Ki in the assay with iCAL36TRL is 110 µM; with iCAL36Q-4 it was over 1000 µM; with iCAL36VQD-3, over 1000 µM.

B2: N2P2 PDZ2 (protein)
chain: LRPRLCHLRKGPQGYGFNLHSDKSRPGQYIRSVDPGSPAARSGLRAQDRLIEVNGQNVEGLRHAEVVASIKAREDEARLLVVDPETD
For the molecule B2, the Ki with iCAL36QDTRL is 1.1 µM; in the assay with iCAL36TRL, 16.5 µM; with iCAL36Q-4 it was 450 µM.

B3: N1P1 PDZ1 (protein)
chain: LPRLCCLEKGPNGYGFHLHGEKGKLGQYIRLVEPGSPAEKAGLLAGDRLVEVNGENVEKETHQQVVSRIRAALNAVRLLVVDPETDE
In general, Kd refers to the free concentration of one partner at which half of the binding sites on the other are occupied at equilibrium, for simple one-to-one binding. A lower Kd goes with higher affinity. Take B3: binding with F*-CFTR6 was characterised by a dissociation constant (Kd) of 0.37 µM. Besides, the Ki was 8 µM with iCAL36TRL, 280 µM in the assay with iCAL36Q-4 and over 1000 µM with iCAL36VQD-3.

B4: N2P1 PDZ1 (protein)
chain: RPRLCRLVRGEQGYGFHLHGEKGRRGQFIRRVEPGSPAEAAALRAGDRLVEVNGVNVEGETHHQVVQRIKAVEGQTRLLVVDQETD
Consider B4, for which the Ki with iCAL36QDTRL was 3.1 µM; with iCAL36TRL, 8.7 µM; in the assay with iCAL36Q-4 it was 300 µM; with iCAL36VQD-3, over 1000 µM.
